In patent US20230107642A1 (Erasca, Inc., priority 2020, published 2023):

Target: T1, K-Ras G12C (Homo sapiens, UniProt P01116, G12C)
T1 construct: This protein contained 188 amino acids in total, including an N-terminal 6-Histidine tag; made in house; host or cells: E. coli BL21
Assay: CAF assay (% CAF; method in Example 7, not in this part)
Assay type: binding
Settings: for % CAF 10 uM @ 60 min: Table 2a

Row | % CAF @ 10 uM, 1h (10 uM compound, 1 h incubation) | % CAF @ 10 uM, 1h (10 uM, 1 h, Table 3) | Structure (SMILES) | further results
1 | 42% |  | C=CC(=O)N1CCN(c2nc(=O)n3c4c(c(-c5ccc(F)cc5F)c(Cl)cc24)SC[C@H]3COCOC)[C@@H](C)C1 [Example 479, (3R)-7-((S)-4-acryloyl-2-methylpiperazin-1-yl)-9-chloro-10-(2,4-difluorophenyl)-3-((methoxymethoxy)methyl)-2H-[1,4]thiazino[2,3,4-ij]quinazolin-5(3H)-one] | 
2 | 96% |  | C=CC(=O)N1[C@H](C)CN(c2nc(=O)n3c4c(c(-c5cc(Cl)c(F)cc5F)c(Cl)cc24)SC[C@H](OC)C3)C[C@@H]1C [Example 542, (3R)-8-((3S,5R)-4-acryloyl-3,5-dimethylpiperazin-1-yl)-10-chloro-11-(5-chloro-2,4-difluorophenyl)-3-methoxy-3,4-dihydro-2H,6H-[1,4]thiazepino[2,3,4-ij]quinazolin-6-one] | 
3 |  | 72.7% | C=CC(=O)N1CCN(c2nc(=O)n3c4c(c(-c5ccccc5F)c(Cl)cc24)SCC3)[C@@H](C)C1 [Example 160, 7-((S)-4-acryloyl-2-methylpiperazin-1-yl)-9-chloro-10-(2-fluorophenyl)-2,3-dihydro-5H-[1,4]thiazino[2,3,4-ij]quinazolin-5-one] | 
4 | 89.5% |  | C=CC(=O)N1C[C@H](C)N(c2nc(=O)n3c4c(c(-c5ccc(F)cc5F)c(C(F)(F)F)cc24)SC[C@@H]3CN2CCN(CC(N)=O)CC2)C[C@H]1C [Example 575, 2-(4-(((3S)-7-((2S,5R)-4-acryloyl-2,5-dimethylpiperazin-1-yl)-10-(2,4-difluorophenyl)-5-oxo-9-(trifluoromethyl)-3,5-dihydro-2H-[1,4]thiazino[2,3,4-ij]quinazolin-3-yl)methyl)piperazin-1-yl)acetamide] | 
5 |  | 96.9% | C=CC(=O)N1CCN(c2nc(=O)n3c4c(c(-c5c(F)cc(F)cc5F)c(Cl)cc24)SC[C@@H]3CCCN2C[C@@H]3C[C@H]2CO3)[C@@H](C)C1 [Example 109, (S)-3-(3-((1S,4S)-2-oxa-5-azabicyclo[2.2.1]heptan-5-yl)propyl)-7-((S)-4-acryloyl-2-methylpiperazin-1-yl)-9-chloro-10-(2,4,6-trifluorophenyl)-2,3-dihydro-5H-[1,4]thiazino[2,3,4-ij]quinazolin-5-one] | 
6 | 68.7% |  | C=CC(=O)N1C[C@H](C)N(c2nc(=O)n3c4c(c(-c5ccc(F)cc5F)c(Cl)cc24)SC[C@@H]3COC)C[C@H]1C [Example 494, (3S)-7-((2S,5R)-4-acryloyl-2,5-dimethylpiperazin-1-yl)-9-chloro-10-(2,4-difluorophenyl)-3-(methoxymethyl)-2H-[1,4]thiazino[2,3,4-ij]quinazolin-5(3H)-one] | 
7 | 95.7% |  | C=CC(=O)N1CCN(c2nc(=O)n3c4c(c(-c5ccc(F)cc5F)c(C(F)(F)F)cc24)SC[C@@H]3COCOC)[C@@H](C)C1 (atropisomer, axis not shown) [Example 548, (3S,10R)-7-((S)-4-acryloyl-2-methylpiperazin-1-yl)-10-(2,4-difluorophenyl)-3-((methoxymethoxy)methyl)-9-(trifluoromethyl)-2,3-dihydro-5H-[1,4]thiazino[2,3,4-ij]quinazolin-5-one] | 
8 |  | 82.2% | C=CC(=O)N1CCN(c2nc(=O)n3c4c(c(-c5ccc(F)cc5F)c(Cl)cc24)SCC3)C2CS(=O)(=O)CC21 (stereo not drawn) [Example 131, 7-(4-acryloyl-6,6-dioxidohexahydrothieno[3,4-b]pyrazin-1(2H)-yl)-9-chloro-10-(2,4-difluorophenyl)-2,3-dihydro-5H-[1,4]thiazino[2,3,4-ij]quinazolin-5-one] | 
9 |  |  | C=CC(=O)N1CCN(c2nc(=O)n3c4c(c(-c5cc(C6CC6)ccc5F)c(Cl)cc24)SCC3)[C@@H](C)C1 [Example 62a, 7-((S)-4-acryloyl-2-methylpiperazin-1-yl)-9-chloro-10-(5-cyclopropyl-2-fluorophenyl)-2,3-dihydro-5H-[1,4]thiazino[2,3,4-ij]quinazolin-5-one] | % CAF 10 uM @ 60 min (10 uM): 67%
10 | 78.6% |  | C=CC(=O)N1C[C@H](C)N(c2nc(=O)n3c4c(c(-c5ccc(F)cc5F)c(C(F)(F)F)cc24)SC[C@@H]3COC)C[C@H]1C [Example 493, (3S)-7-((2S,5R)-4-acryloyl-2,5-dimethylpiperazin-1-yl)-10-(2,4-difluorophenyl)-3-(methoxymethyl)-9-(trifluoromethyl)-2H-[1,4]thiazino[2,3,4-ij]quinazolin-5(3H)-one] | 
11 |  | 94.4% | C=CC(=O)N1CCN(c2nc(=O)n3c4c(c(-c5ccc(F)cc5F)c(Cl)cc24)SCC3)[C@@H](CC#N)C1 [Example 104, 2-((2S)-4-acryloyl-1-(9-chloro-10-(2,4-difluorophenyl)-5-oxo-2,3-dihydro-5H-[1,4]thiazino[2,3,4-ij]quinazolin-7-yl)piperazin-2-yl)acetonitrile] | 
12 | 95% |  | C=CC(=O)N1CCN(c2nc(=O)n3c4c(c(-c5ccc(F)cc5F)c(C(F)(F)F)cc24)SC[C@@H](OC)C3)[C@@H](C)C1 [Example 464, (3S)-8-((S)-4-acryloyl-2-methylpiperazin-1-yl)-11-(2,4-difluorophenyl)-3-methoxy-10-(trifluoromethyl)-3,4-dihydro-2H,6H-[1,4]thiazepino[2,3,4-ij]quinazolin-6-one] | 
13 | 84.2% |  | C=CC(=O)N1CCN(c2nc(=O)n3c4c(c(-c5ccc(F)cc5F)c(Cl)cc24)SC[C@@H]3CN2CCN(C3CC3)CC2)[C@@H](C)C1 [Example 422, (3S)-7-((S)-4-acryloyl-2-methylpiperazin-1-yl)-9-chloro-3((4-cyclopropylpiperazin-1-yl)methyl)-10-(2,4-difluorophenyl)-2H-[1,4]thiazino[2,3,4-ij]quinazolin-5(3H)-one] | 
14 | 57.8% |  | C=CC(=O)N1CCN(c2nc(=O)n3c4c(c(-c5cc(F)c(F)cc5F)c(Cl)cc24)SC[C@@H]3CN2CCC3(CC2)COC3)[C@@H](C)C1 [Example 469, (3S)-3-(2-oxa-7-azaspiro[3.5]nonan-7-ylmethyl)-7-((S)-4-acryloyl-2-methylpiperazin-1-yl)-9-chloro-10-(2,4,5-trifluorophenyl)-2H-[1,4]thiazino[2,3,4-ij]quinazolin-5(3H)-one] | 
15 | 66.1% |  | C=CC(=O)N1C[C@H](C)N(c2nc(=O)n3c4c(c(-c5ccc(F)cc5)c(C(F)(F)F)cc24)SC[C@@H]3COCCOC)C[C@H]1C [Example 512, (S)-7-((2S,5R)-4-acryloyl-2,5-dimethylpiperazin-1-yl)-10-(4-fluorophenyl)-3-((2-methoxyethoxy)methyl)-9-(trifluoromethyl)-2H-[1,4]thiazino[2,3,4-ij]quinazolin-5(3H)-one] | 
16 | 59.4% |  | C=CC(=O)N1C[C@H](C)N(c2nc(=O)n3c4c(c(-c5ccc(F)cc5)c(C(F)(F)F)cc24)SC[C@@H]3CC2CN(CC(F)F)C2)C[C@H]1C [Example 481, (S)-7-((2S,5R)-4-acryloyl-2,5-dimethylpiperazin-1-yl)-3-((1-(2,2-difluoroethyl)azetidin-3-yl)methyl)-10-(4-fluorophenyl)-9-(trifluoromethyl)-2,3-dihydro-5H-[1,4]thiazino[2,3,4-ij]quinazolin-5-one] | 
17 |  | 59.9% | C=CC(=O)N1CCN(c2nc(=O)n3c4c(c(-c5ccc(F)cc5F)c(Cl)cc24)SCC3)[C@@H](CO)C1 [Example 150, 7-((R)-4-acryloyl-2-(hydroxymethyl)piperazin-1-yl)-9-chloro-10-(2,4-difluorophenyl)-2,3-dihydro-5H-[1,4]thiazino[2,3,4-ij]quinazolin-5-one] | 
18 |  | 88.2% | C=CC(=O)N1CCN(c2nc(=O)n3c4c(c(-c5ccc(F)cc5F)c(Cl)cc24)S(=O)(=O)CC3)[C@@H](C)C1 [Example 190, 7-((S)-4-acryloyl-2-methylpiperazin-1-yl)-9-chloro-10-(2,4-difluorophenyl)-2,3-dihydro-5H-[1,4]thiazino[2,3,4-ij]quinazolin-5-one 1,1-dioxide] | % CAF 10 uM @ 60 min (10 uM): 88.8%
19 | 13.9% |  | C=CC(=O)N1CCN(c2nc(=O)n3c4c(c(-c5c(F)cc(F)cc5F)c(Cl)cc24)SC[C@H]3CN2CCN(CC)CC2)[C@@H](C)C1 [Example 424, (R)-7-((S)-4-acryloyl-2-methylpiperazin-1-yl)-9-chloro-3-((4-ethylpiperazin-1-yl)methyl)-10-(2,4,6-trifluorophenyl)-2H-[1,4]thiazino[2,3,4-ij]quinazolin-5(3H)-one] | 
20 | 70.7% |  | C=CC(=O)N1C[C@H](C)N(c2nc(=O)n3c4c(c(-c5ccc(F)cc5F)c(Cl)cc24)SC[C@@H]3CC2CCN(C3CC3)CC2)C[C@H]1C [Example 478, (3S)-7-((2S,5R)-4-acryloyl-2,5-dimethylpiperazin-1-yl)-9-chloro-3-((1-cyclopropylpiperidin-4-yl)methyl)-10-(2,4-difluorophenyl)-2H-[1,4]thiazino[2,3,4-ij]quinazolin-5(3H)-one] | 
21 |  | 89.4% | C=CC(=O)N1CCN(c2nc(=O)n3c4c(c(-n5ccccc5=O)c(Cl)cc24)SCC3)[C@@H](C)C1 [Example 136, 7-((S)-4-acryloyl-2-methylpiperazin-1-yl)-9-chloro-10-(2-oxopyridin-1(2H)-yl)-2,3-dihydro-5H-[1,4]thiazino[2,3,4-ij]quinazolin-5-one] | 
22 |  |  | C=CC(=O)N1CCN(c2nc(=O)n3c4c(c(-c5ccc(F)cc5F)c(C(F)(F)F)cc24)SC[C@@H]3CN2CCN(CC)CC2)[C@@H](C)C1 [Example 350, (3S)-7-((S)-4-acryloyl-2-methylpiperazin-1-yl)-10-(2,4-difluorophenyl)-3-((4-ethylpiperazin-1-yl)methyl)-9-(trifluoromethyl)-2H-[1,4]thiazino[2,3,4-ij]quinazolin-5(3H)-one] | % CAF @ 10 μM, 1 h (10 μM, 1 h, Table 4): 95%
23 | 73.6% |  | C=CC(=O)N1CCN(c2nc(=O)n3c4c(c(-c5cc(Cl)c(F)cc5F)c(Cl)cc24)SC[C@@H]3CN2CCN(CC)CC2)[C@@H](C)C1 [Example 412, (3S)-7-((S)-4-acryloyl-2-methylpiperazin-1-yl)-9-chloro-10-(5-chloro-2,4-difluorophenyl)-3-((4-ethylpiperazin-1-yl)methyl)-2H-[1,4]thiazino[2,3,4-ij]quinazolin-5(3H)-one] | 
